{"source": "patent US20130072506A1", "about": "“6,8-DISUBSTITUTED PURINE COMPOSITIONS” (priority 2011, published 2013)", "key": {"[1]": {"tested_on": "Amaranthus caudatus cotyledon/hypocotyl explants", "experiment": "Amaranthus bioassay (betacyanin content)", "assay_type": "in vivo, Amaranthus caudatus var. atropurpurea", "procedure": "Testing of Novel Compounds in Amaranthus bioassay. Standard Amaranthus bioassay was performed with several modifications. The seeds of Amaranthus caudatus var. atropurpurea were surface-sterilized in 10% N-chlorobenzene sulfonamide (w/v) for 10 min and washed 5 times in deionized water. They were placed in 14 cm Petri dishes containing paper tissues saturated with deionized water. After 72 hours of cultivation at 25° C. in darkness, the roots of the seedlings were cut off. The explants, consisting of two cotyledons and hypocotyls, were placed in 5 cm Petri dishes on two layers of filter paper soaked in 1 ml of incubation medium containing 10 μmol Na2HPO4—KH2PO4, pH 6.8, 5 μmol tyrosine and the cytokinin to be tested. There were 20 explants per dish. The procedure was carried out under a green safe light in a darkroom. After a 48 hours of incubation at 25° C. in darkness, betacyanin was extracted by freezing the explants in 4 ml 3.33 μM acetic acid. The concentration of betacyanin was determined by comparing the absorbance at 537 nm and 620 nm as follows: DA=A537nm−A620nm. From the obtained data, the concentration with highest activity was selected for each compound tested. Relative activity of the compound at this concentration was calculated (see Table 3 below). […] The values shown in Table 3 are means of five replicates and the entire test was repeated twice.\nThe cytokinins to be tested were dissolved in dimethylsulfoxide (DMSO) and the solution brought up to 10^−3 M with distilled water."}, "SKH-1 hairless mice [2]": {"tested_on": "SKH-1 hairless mice", "experiment": "Hairless mouse assay: skin moisture content", "assay_type": "in vivo", "text": "Evaluation of cutaneous effects of new topical compounds in the hirless mouse assay. The purpose of this study was to evaluate new topical compounds for their safety and efficacy as topical skin anti-aging treatments. The hairless mouse model is a well established model for studying the treatments of photoaging. […] The present study was used to investigate a new class of anti-aging compounds in comparison to classical ones. […] Topical compounds and vehicle controls were be applied daily (Monday-Friday) for 3 weeks to the dorsal skin of hairless mice. At baseline (prior to the 1st treatment), and weekly, the dorsal skin was measured for: transepidermal water loss (TEWL); skin moisture content; and skin elasticity.\nExperimental Design. 48 female SKH-1 hairless mice (5 weeks old, 20-25 grams, Charles River Laboratories, Wilmington, Mass.) are individually housed in filter-top cages, and acclimated for 5-7 days after delivery. The mice are divided into 8 treatment groups (n=6), including two different control groups (untreated control, vehicle control) and a therapeutic control (tretinoin 0.05% Renova™ cream). Cage cards are marked to indicate treatment groups 1-8. Water and mouse chow are provided ad libitum.\nSkin Moisture Content & Elasticity. The measurements of skin moisture content and skin elasticity are important noninvasive methods used to characterize the effects of moisturizers and anti-wrinkle effects on skin. A DermaLab™ combination instrument were used to measure the skin moisture content and elasticity of the target skin sites at baseline and at weekly intervals. This instrument is equipped with dual probes which are placed on the skin surface and a quantitative measurement taken of the respective parameters and the measurements recorded on an integrated computer. Mean measurements was determined for each treatment group over time, and comparative statistics used to evaluate product effectiveness.\nTopical Treatments. Beginning on Treatment Day 1, test products are applied topically each morning (Monday through Friday) after erythema evaluations for 3 weeks. Using a positive displacement pipette, 20 mg of each agent is applied to a 2 cm×2 cm area of the center midline of the back. The material was spread across the treatment area with the pipette tip."}, "[3]": {"tested_on": "human skin fibroblast line ASF-2", "experiment": "Short-term growth of human skin fibroblasts", "assay_type": "cell-based", "settings": "for cellular growth: 200 to 500 μM", "procedure": "Experimental Procedures. A stock solution of 4 mM for 6-furfurylamino-8-aminopurine and 8 mM for other compounds were prepared by dissolving about […] per ml 1N HCl, followed by its appropriate dilution by the addition of Hank's buffer. The stock solution was filter sterilized, stored at 4° C., and was used for experiments by dilution it in the cell culture medium as required.\n(§1) All cell culture experiments were performed on early and mid passage cultures (about 20 to 40% lifespan completed) of normal human skin fibroblast line, designated ASF-2. In order to check the effects of test compounds on senescent cells, late passage cells with more than 90% lifespan completed were used. ASF-2 cell line was established from a mammary skin biopsy obtained from a young, non-smoking and healthy […] at the time of breast reduction operation. Normal culture conditions of medium (DMEM) containing antibiotics, 10% foetal calf serum, and incubation at 37° C. with 95% humidity were used. The effects of the test compounds were determined using the following procedures.\nGrowth characteristics. Short-term growth experiments were performed using 24-well tissue culture plates (growth area 1.9 cm^2). Freshly prepared cell suspensions from mass cultures of ASF-2 cells maintained in our labs were used. About 10,000 cells were seeded into 6 sets of 24-well plates. The cells were allowed to attach and stabilize for 24 hr in normal culture medium to achieve various final concentrations (range 40 to 500 μM). Culture medium was changed with the addition of test chemicals twice a week. The numbers of cells were counted after different days of treatment in 2 wells from each concentration of the test chemical, by following the normal method of cell trypsinization and counting using a Coultercounter. The third well in each category was fixed by cold methanol and stained with Giemsa stain for permanent record and for photography. The experiment was carried on for until the cultures became fully confluent and no further growth was possible."}, "[4]": {"tested_on": "human skin fibroblast line ASF-2", "experiment": "Senescence-specific beta-galactosidase staining", "assay_type": "cell-based", "text": "B) Cellular parameters: • (4) Cellular morphology: to evaluate cytoplasmic and nuclear stability; • (5) Cytoskeleton organization: to evaluate the stability of the cytoskeleton; • (6) Appearance of senescence-specific β-galactosidase: to rule out pro-aging effects; • (7) Lysosomal staining (Neutral red); • (8) JC-1 Staining of Mitochondria: for evaluation of mitochondrial function; • (9) Rejuvenation studies: for evaluation of reversion effect from aged phenotype to young phenotype; and\nas §1"}, "SKH-1 hairless mice [5]": {"tested_on": "SKH-1 hairless mice", "experiment": "Hairless mouse assay: skin elasticity", "assay_type": "in vivo", "settings": "3 weeks of topical treatment", "text": "Evaluation of cutaneous effects of new topical compounds in the hirless mouse assay. The purpose of this study was to evaluate new topical compounds for their safety and efficacy as topical skin anti-aging treatments. The hairless mouse model is a well established model for studying the treatments of photoaging. This model has been used to study mechanisms, define effective treatment regimens and assess safety for retinoids and other anti-aging products. The present study was used to investigate a new class of anti-aging compounds in comparison to classical ones. Recent clinical studies have shown that this class of compounds improve the appearance of photodamaged skin and decrease transepidermal water loss (TEWL) without causing skin irritation. […] At baseline (prior to the 1st treatment), and weekly, the dorsal skin was measured for: transepidermal water loss (TEWL); skin moisture content; and skin elasticity. […]\nSkin Moisture Content & Elasticity. […] This instrument is equipped with dual probes which are placed on the skin surface and a quantitative measurement taken of the respective parameters and the measurements recorded on an integrated computer. Mean measurements was determined for each treatment group over time, and comparative statistics used to evaluate product effectiveness. […]"}}, "data": [{"smiles": "Nc1nc2c(NCc3ccco3)ncnc2[nH]1", "note": "[Compound 82, 6-furfurylamino-8-aminopurine]", "values": [{"measurement": "Activity (%)", "setting": "[1]; at concentration with highest activity, activity of kinetin set at 100%", "result": 147.45, "unit": "%"}, {"measurement": "Concentration with highest activity", "setting": "[1]; betacyanin content, 48 hours in darkness", "result": "10^−4 mol/l"}, {"measurement": "mean moisture content", "setting": "SKH-1 hairless mice [2]; at week 3", "result": "most effective"}, {"measurement": "average moisture content", "setting": "SKH-1 hairless mice [2]; compared with the vehicle", "result": "higher than that of the vehicle"}, {"measurement": "Cell growth", "setting": "[3]; 80 μM vs untreated", "result": "similar"}, {"measurement": "cellular growth", "setting": "[3]", "result": "significantly inhibited"}, {"measurement": "cellular growth", "setting": "[3]; after 9 days", "result": "almost a total inhibition"}, {"measurement": "number of prematurely senescent cells (beta-galactosidase staining)", "setting": "[4]", "result": "did not show any increase"}, {"measurement": "skin elasticity", "setting": "SKH-1 hairless mice [5]", "result": "better than controls tested"}]}]}
